In ChEMBL document CHEMBL3774387, “Synthesis and anticancer evaluation of spermatinamine analogues” (Bioorg Med Chem Lett, 2016):
pIC50: −log10 of the molar value.

How the values were obtained:
MCF7 [1] = assay: Cytotoxicity against human MCF7 cells assessed as viable cells after 24 hrs by Solid plate-based spot culture growth inhibition assay; assay type: functional, cell-based; details: MCF7, 24 h
[2] = Cytotoxicity against human DU145 cells assessed as viable cells after 24 hrs by Solid plate-based spot culture growth inhibition assay; assay type: functional, cell-based; details: DU-145, 24 h
HeLa [3] = assay: Cytotoxicity against human HeLa cells assessed as growth inhibition at 100 uM after 24 hrs by MTT assay (reference value: 0 to 4.4%); assay type: functional; details: read-out: GI
[4] = Cytotoxicity against human DU145 cells assessed as growth inhibition at 1.25 uM after 24 hrs by MTT assay (reference value: 1.2 to 7.8%); assay type: functional; details: DU-145, 24 h, read-out: GI
MCF7 [5] = assay: Cytotoxicity against human MCF7 cells assessed as growth inhibition at 10 uM after 24 hrs by MTT assay (reference value: 2.7 to 9.3%); assay type: functional; details: MCF7, 24 h, read-out: GI
MCF7 [6] = assay: Cytotoxicity against human MCF7 cells assessed as viable cells after 48 hrs by MTT assay; assay type: functional, cell-based; details: MCF7, 48 h
[7] = Cytotoxicity against human DU145 cells assessed as growth inhibition at 100 uM after 24 hrs by MTT assay (reference value: 1.2 to 7.8%); assay type: functional; details: DU-145, 24 h, read-out: GI
MCF7 [8] = assay: Cytotoxicity against human MCF7 cells assessed as growth inhibition at 25 uM after 24 hrs by MTT assay (reference value: 2.7 to 9.3%); assay type: functional; details: MCF7, 24 h, read-out: GI
[9] = Cytotoxicity against human DU145 cells assessed as growth inhibition at 50 uM after 24 hrs by MTT assay (reference value: 1.2 to 7.8%); assay type: functional; details: DU-145, 24 h, read-out: GI
MCF7 [10] = assay: Cytotoxicity against human MCF7 cells assessed as growth inhibition at 100 uM after 24 hrs by MTT assay (reference value: 2.7 to 9.3%); assay type: functional; details: MCF7, 24 h, read-out: GI
[11] = Cytotoxicity against human DU145 cells assessed as growth inhibition at 10 uM after 24 hrs by MTT assay (reference value: 1.2 to 7.8%); assay type: functional; details: DU-145, 24 h, read-out: GI
MCF7 [12] = assay: Cytotoxicity against human MCF7 cells assessed as growth inhibition at 5 uM after 24 hrs by MTT assay (reference value: 2.7 to 9.3%); assay type: functional; details: MCF7, 24 h, read-out: GI
[13] = Cytotoxicity against human DU145 cells assessed as viable cells after 48 hrs by MTT assay; assay type: functional, cell-based; details: DU-145, 48 h
[14] = Cytotoxicity against human DU145 cells assessed as growth inhibition at 25 uM after 24 hrs by MTT assay (reference value: 1.2 to 7.8%); assay type: functional; details: DU-145, 24 h, read-out: GI
[15] = Cytotoxicity against human DU145 cells assessed as growth inhibition at 2.5 uM after 24 hrs by MTT assay (reference value: 1.2 to 7.8%); assay type: functional; details: DU-145, 24 h, read-out: GI
[16] = Cytotoxicity against human DU145 cells assessed as growth inhibition at 5 uM after 24 hrs by MTT assay (reference value: 1.2 to 7.8%); assay type: functional; details: DU-145, 24 h, read-out: GI
MCF7 [17] = assay: Cytotoxicity against human MCF7 cells assessed as growth inhibition at 50 uM after 24 hrs by MTT assay (reference value: 2.7 to 9.3%); assay type: functional; details: MCF7, 24 h, read-out: GI
HeLa [18] = assay: Cytotoxicity against human HeLa cells assessed as viable cells after 48 hrs by MTT assay; assay type: functional, cell-based
HeLa [19] = assay: Cytotoxicity against human HeLa cells assessed as growth inhibition at 5 uM after 24 hrs by MTT assay (reference value: 0 to 4.4%); assay type: functional; details: read-out: GI
HeLa [20] = assay: Cytotoxicity against human HeLa cells assessed as growth inhibition at 1.25 uM after 24 hrs by MTT assay (reference value: 0 to 4.4%); assay type: functional; details: read-out: GI
HeLa [21] = assay: Cytotoxicity against human HeLa cells assessed as viable cells after 24 hrs by MTT assay; assay type: functional, cell-based
MCF7 [22] = assay: Cytotoxicity against human MCF7 cells assessed as growth inhibition at 2.5 uM after 24 hrs by MTT assay (reference value: 2.7 to 9.3%); assay type: functional; details: MCF7, 24 h, read-out: GI
HeLa [23] = assay: Cytotoxicity against human HeLa cells assessed as growth inhibition at 2.5 uM after 24 hrs by MTT assay (reference value: 0 to 4.4%); assay type: functional; details: read-out: GI
MCF7 [24] = assay: Cytotoxicity against human MCF7 cells assessed as viable cells after 24 hrs by MTT assay; assay type: functional, cell-based; details: MCF7, 24 h
HeLa [25] = assay: Cytotoxicity against human HeLa cells assessed as growth inhibition at 10 uM after 24 hrs by MTT assay (reference value: 0 to 4.4%); assay type: functional; details: read-out: GI
HeLa [26] = assay: Cytotoxicity against human HeLa cells assessed as growth inhibition at 50 uM after 24 hrs by MTT assay (reference value: 0 to 4.4%); assay type: functional; details: read-out: GI
[27] = Cytotoxicity against human DU145 cells assessed as viable cells after 24 hrs by MTT assay; assay type: functional, cell-based; details: DU-145, 24 h
MCF7 [28] = assay: Cytotoxicity against human MCF7 cells assessed as growth inhibition at 1.25 uM after 24 hrs by MTT assay (reference value: 2.7 to 9.3%); assay type: functional; details: MCF7, 24 h, read-out: GI
HeLa [29] = assay: Cytotoxicity against human HeLa cells assessed as growth inhibition at 25 uM after 24 hrs by MTT assay (reference value: 0 to 4.4%); assay type: functional; details: read-out: GI
HeLa [30] = assay: Cytotoxicity against human HeLa cells assessed as growth inhibition at 5 uM by MTT assay; assay type: functional, cell-based; details: TDE = time-dependent effect
HeLa [31] = assay: Cytotoxicity against human HeLa cells assessed as growth inhibition at 5 uM after 48 hrs by MTT assay; assay type: functional; details: read-out: GI

COc1c(Br)cc(C/C(=N\O)C(=O)NCCCN(C)CCCCN(C)CCCNC(=O)/C(Cc2cc(Br)c(OC)c(Br)c2)=N/O)cc1Br
pIC50 (MCF7 [1]): 5.80
pIC50 [2]: 5.80

COc1c(Br)cc(C/C(=N\OCc2ccccc2)C(=O)NCCCNCCCCNCCCNC(=O)/C(Cc2cc(Br)c(OC)c(Br)c2)=N/OCc2ccccc2)cc1Br
inhibition of growth at 100 µM (HeLa [3]): 94.7%
inhibition of growth at 1.25 µM [4]: 15.5%
inhibition of growth at 10 µM (MCF7 [5]): 98.9%
pIC50 (MCF7 [6]): 5.47
inhibition of growth at 100 µM [7]: 97.3%
inhibition of growth at 25 µM (MCF7 [8]): 97.6%
inhibition of growth at 50 µM [9]: 98.4%
inhibition of growth at 100 µM (MCF7 [10]): 96.4%
inhibition of growth at 10 µM [11]: 98.5%
inhibition of growth at 5 µM (MCF7 [12]): 58.6%
pIC50 [13]: 5.34
inhibition of growth at 25 µM [14]: 98.6%
inhibition of growth at 2.5 µM [15]: 24.4%
inhibition of growth at 5 µM [16]: 68.2%
inhibition of growth at 50 µM (MCF7 [17]): 97.7%
pIC50 (HeLa [18]): 5.54
inhibition of growth at 5 µM (HeLa [19]): 93.5%
inhibition of growth at 1.25 µM (HeLa [20]): 0%
pIC50 (HeLa [21]): 5.40
inhibition of growth at 2.5 µM (MCF7 [22]): 30%
inhibition of growth at 2.5 µM (HeLa [23]): 23.5%
pIC50 (MCF7 [24]): 5.35
inhibition of growth at 10 µM (HeLa [25]): 98.3%
inhibition of growth at 50 µM (HeLa [26]): 96.9%
pIC50 [27]: 5.40
inhibition of growth at 1.25 µM (MCF7 [28]): 19.2%

COc1c(Br)cc(C/C(=N\O)C(=O)NCCCCCNC(=O)/C(Cc2cc(Br)c(OC)c(Br)c2)=N/O)cc1Br
pIC50 (MCF7 [6]): < 4.00
pIC50 [13]: < 4.00
pIC50 (HeLa [18]): < 4.00
pIC50 (HeLa [21]): < 4.00
pIC50 (MCF7 [24]): < 4.00
pIC50 [27]: < 4.00

CO/N=C(\Cc1cc(Br)c(OC)c(Br)c1)C(=O)NCCCNCCCCNCCCNC(=O)/C(Cc1cc(Br)c(OC)c(Br)c1)=N/OC
inhibition of growth at 100 µM (HeLa [3]): 97.4%
inhibition of growth at 1.25 µM [4]: 24.6%
inhibition of growth at 10 µM (MCF7 [5]): 33.1%
pIC50 (MCF7 [6]): 4.72
inhibition of growth at 100 µM [7]: 98.7%
inhibition of growth at 25 µM (MCF7 [8]): 55.5%
inhibition of growth at 50 µM [9]: 99.2%
inhibition of growth at 100 µM (MCF7 [10]): 98.1%
inhibition of growth at 10 µM [11]: 34.3%
inhibition of growth at 5 µM (MCF7 [12]): 22.3%
pIC50 [13]: 4.56
inhibition of growth at 25 µM [14]: 55%
inhibition of growth at 2.5 µM [15]: 24.1%
inhibition of growth at 5 µM [16]: 26.1%
inhibition of growth at 50 µM (MCF7 [17]): 98.4%
inhibition of growth at 25 µM (HeLa [29]): 70.4%
pIC50 (HeLa [18]): 4.60
inhibition of growth at 5 µM (HeLa [19]): 0%
inhibition of growth at 1.25 µM (HeLa [20]): 0%
pIC50 (HeLa [21]): 4.58
inhibition of growth at 2.5 µM (MCF7 [22]): 20.8%
inhibition of growth at 2.5 µM (HeLa [23]): 0%
pIC50 (MCF7 [24]): 4.61
inhibition of growth at 10 µM (HeLa [25]): 20.2%
inhibition of growth at 50 µM (HeLa [26]): 97.8%
pIC50 [27]: 4.58
inhibition of growth at 1.25 µM (MCF7 [28]): 15.4%

COc1c(Br)cc(C/C(=N\OCc2ccccc2)C(=O)NCCCCCNC(=O)/C(Cc2cc(Br)c(OC)c(Br)c2)=N/OCc2ccccc2)cc1Br
pIC50 (MCF7 [6]): < 4.00
pIC50 [13]: < 4.00
pIC50 (HeLa [18]): < 4.00
pIC50 (HeLa [21]): < 4.00
pIC50 (MCF7 [24]): < 4.00
pIC50 [27]: < 4.00

CO/N=C(\Cc1cc(Br)c(OC)c(Br)c1)C(=O)NCCNCCNC(=O)/C(Cc1cc(Br)c(OC)c(Br)c1)=N/OC
inhibition of growth at 100 µM (HeLa [3]): 97.1%
inhibition of growth at 1.25 µM [4]: 19.9%
inhibition of growth at 10 µM (MCF7 [5]): 23%
pIC50 (MCF7 [6]): 4.51
inhibition of growth at 100 µM [7]: 95.6%
inhibition of growth at 25 µM (MCF7 [8]): 46.2%
inhibition of growth at 50 µM [9]: 99%
inhibition of growth at 100 µM (MCF7 [10]): 96.9%
inhibition of growth at 10 µM [11]: 20.2%
inhibition of growth at 5 µM (MCF7 [12]): 20.3%
pIC50 [13]: 4.55
inhibition of growth at 25 µM [14]: 26.7%
inhibition of growth at 2.5 µM [15]: 21.3%
inhibition of growth at 5 µM [16]: 22.1%
inhibition of growth at 50 µM (MCF7 [17]): 96.9%
inhibition of growth at 25 µM (HeLa [29]): 80.1%
pIC50 (HeLa [18]): 4.97
inhibition of growth at 5 µM (HeLa [19]): 0.1%
inhibition of growth at 1.25 µM (HeLa [20]): 11%
pIC50 (HeLa [21]): 4.59
inhibition of growth at 2.5 µM (MCF7 [22]): 23.9%
inhibition of growth at 2.5 µM (HeLa [23]): 4.8%
pIC50 (MCF7 [24]): 4.57
inhibition of growth at 10 µM (HeLa [25]): 24.5%
inhibition of growth at 50 µM (HeLa [26]): 95%
pIC50 [27]: 4.59
inhibition of growth at 1.25 µM (MCF7 [28]): 11.4%

COc1c(Br)cc(C/C(=N\OCc2ccccc2)C(=O)NCCNCCNC(=O)/C(Cc2cc(Br)c(OC)c(Br)c2)=N/OCc2ccccc2)cc1Br
pIC50 (MCF7 [6]): < 4.00
pIC50 [13]: < 4.00
pIC50 (HeLa [18]): < 4.00
pIC50 (HeLa [21]): < 4.00
pIC50 (MCF7 [24]): < 4.00
pIC50 [27]: < 4.00

COc1c(Br)cc(C/C(=N\O)C(=O)NCCCNCCCCNCCCNC(=O)/C(Cc2cc(Br)c(OC)c(Br)c2)=N/O)cc1Br
growth inhibition (GI) (HeLa [30]): tde
inhibition of growth at 5 µM (HeLa [31]): 90%
pIC50 (MCF7 [6]): < 4.00
pIC50 [13]: < 4.00
pIC50 (HeLa [18]): < 4.00
pIC50 (HeLa [21]): < 4.00
pIC50 (MCF7 [24]): < 4.00
pIC50 [27]: < 4.00

COc1c(Br)cc(C/C(=N\O)C(=O)NCCNCCNC(=O)/C(Cc2cc(Br)c(OC)c(Br)c2)=N/O)cc1Br
pIC50 (MCF7 [6]): < 4.00
pIC50 [13]: < 4.00
pIC50 (HeLa [18]): < 4.00
pIC50 (HeLa [21]): < 4.00
pIC50 (MCF7 [24]): < 4.00
pIC50 [27]: < 4.00

CO/N=C(\Cc1cc(Br)c(OC)c(Br)c1)C(=O)NCCCCCNC(=O)/C(Cc1cc(Br)c(OC)c(Br)c1)=N/OC
pIC50 (MCF7 [6]): < 4.00
pIC50 [13]: < 4.00
pIC50 (HeLa [18]): < 4.00
pIC50 (HeLa [21]): < 4.00
pIC50 (MCF7 [24]): < 4.00
pIC50 [27]: < 4.00
